# Results: ChEMBL document CHEMBL3137667, “[Drug-induced liver injury; fourteenth updated edition of the bibliographic database of liver injuries and related drugs]” (Gastroenterol Clin Biol, 2004)
# Experiments:
# [1] = human
# [2] = human, serum, 4383 h
# [3] = Highest frequency of moderate liver toxicity observed during clinical trials, expressed as a percentage. [column '% BIOL' in source]; settings: human
# [4] = human; remark: listed apart in the source
# [5] = human; remark: listed apart in the source
# [6] = human; remark: listed apart in the source
# [7] = human; remark: listed apart in the source
# [8] = human, serum
# [9] = human; remark: listed apart in the source
# [10] = human, serum; remark: listed apart in the source
# [11] = human; remark: listed apart in the source
# [12] = Highest frequency of acute liver toxicity observed during clinical trials, expressed as a percentage. [column '% AIGUE' in source]; settings: human
# [13] = human; remark: listed apart in the source
# [14] = human; remark: listed apart in the source
# 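For Hepatotoxicity (association with vascular disease) in this document: count of indexed literature references reporting vascular liver injury in humans, e.g. peliosis hepatitis, hepatic veno-occlusive disease or Budd-Chiari syndrome.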
# 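For Hepatotoxicity (benign tumour) in this document: value is a count of indexed literature references citing a benign tumour confirmed by histopathology.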
# 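For Hepatotoxicity (choleostasis) in this document: human cholestatic liver injury, shown by histopathology or by peak ALT or AST elevation over alkaline phosphatase ratio below 2, value counts indexed literature reports.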
# 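For Hepatotoxicity (chronic liver disease) in this document: chronic liver injury confirmed by histopathology or persistently raised serum aminotransferase activity beyond 6 months, value given as the count of indexed literature references.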
# 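For Hepatotoxicity (cirrhosis) in this document: value is a count of indexed literature references reporting cirrhosis confirmed by histopathology.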
# 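For Hepatotoxicity (cytolytic) in this document: human cytolytic liver injury, shown by histopathology or by a ratio above 5 of peak ALT or AST elevation to alkaline phosphatase elevation, value counts indexed references.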
# 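For Hepatotoxicity (granulomatous hepatitis) in this document: value is a count of indexed literature references reporting granulomatous liver disease confirmed by histopathology.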
# 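For Hepatotoxicity (malignant tumour) in this document: malignant tumour confirmed by histopathology, value gives the count of indexed literature references reporting it.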
# 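For Hepatotoxicity (severe hepatitis) in this document: human clinical data: severe hepatitis, meaning potentially life-threatening liver failure or clinically observed cases, the value counts how many indexed literature references report it.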
# 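For Hepatotoxicity (steatosis) in this document: steatosis confirmed by histopathology, value is the count of indexed references.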
Compound,Hepatotoxicity (choleostasis) [1],Hepatotoxicity (chronic liver disease) [2],Hepatotoxicity (moderate) [3],Hepatotoxicity (malignant tumour) [4],Hepatotoxicity (severe hepatitis) [5],Hepatotoxicity (cirrhosis) [6],Hepatotoxicity (association with vascular disease) [7],Hepatotoxicity (moderate) [8],Hepatotoxicity (steatosis) [9],Hepatotoxicity (acute) [10],Hepatotoxicity (granulomatous hepatitis) [11],Hepatotoxicity (acute) [12],Hepatotoxicity (benign tumour) [13],Hepatotoxicity (cytolytic) [14]
CO/N=C(\C(=O)N[C@@H]1C(=O)N2C(C(=O)OCOC(=O)C(C)(C)C)=C(/C=C\c3scnc3C)CS[C@H]12)c1csc(N)n1 [CEFDITOREN PIVOXIL],0,0,37.5%,0,0,0,0,41,0,0,0,0%,0,0
CC[N+](C)(C/C=C/C1=C(C(=O)[O-])N2C(=O)[C@@H](NC(=O)/C(=N\OCF)c3nsc(N)n3)[C@H]2SC1)CC(N)=O (stereo partly drawn),0,0,37.5%,0,0,0,0,51,0,0,0,0%,0,0
CC(C)(C)NC(=O)[C@H]1CC[C@H]2[C@@H]3CC[C@H]4NC(=O)C=C[C@]4(C)[C@H]3CC[C@]12C [FINASTERIDE],0,0,9%,0,0,0,0,1,0,0,0,0%,0,0
CC(C)(C)c1ccc(CCC(O)COc2ccc(C(=O)O)cc2)cc1 (stereo not drawn) [LIFIBROL],0,0,3.9%,0,0,0,0,1,0,0,0,0%,0,0
LENTINAN,0,0,2%,0,0,0,0,2,0,0,0,0%,0,0
N[C@@H](CSCC(=O)O)C(=O)O [CARBOCYSTEINE],0,0,0.8%,0,0,0,0,1,0,0,0,0%,0,0
NS(=O)(=O)OCCCCCCCOS(N)(=O)=O,0,0,25%,0,0,0,0,2,0,0,0,0%,0,0
COc1cccc(C2(O)CCCCC2CN(C)C)c1 (stereo not drawn) [TRAMADOL],0,0,0%,0,0,0,0,1,0,0,0,0%,0,0
CN(C)C(=O)CCCOC(=O)C(C)(C)Oc1ccc(Cl)cc1 [CLOFIBRIDE],0,0,0%,0,0,0,0,1,0,0,0,0%,0,0
O=C(O)Cn1c(=O)n(Cc2ccc(Br)cc2F)c(=O)c2ccc(Cl)cc21 [ZENARESTAT],0,0,9.5%,0,0,0,0,1,0,0,0,0%,0,0
COC1=C(C(=O)O)N2C(=O)[C@@H](NC(=O)[C@H](N)C3=CCC=CC3)[C@H]2SC1 [CEFROXADINE],0,0,2%,0,0,0,0,1,0,0,0,0%,0,0
CCC(Cc1cnc2nc(N)nc(N)c2n1)c1ccc(C(=O)N[C@@H](CCC(=O)O)C(=O)O)cc1 (stereo partly drawn) [EDATREXATE],0,0,30%,0,0,0,0,8,0,2,0,3.2%,0,2
